Results taken from article PMC5706701, “Development of a homogenous high-throughput assay for inositol hexakisphosphate kinase 1 activity” (PLoS ONE, 2017).
Counter-ions that a name gives are not always drawn. Like-named read-outs stand apart in the source and are kept apart here. Where a SMILES comes first, the peptide text is derived from it. The star is where a group is joined. Cbz = O=C(OCc1ccccc1)*

Target: T1, Human IP6K1 (Homo sapiens, UniProt Q92551)
T1 construct: GST (N, cleaved yes); made in house; host or cells: C43 E. coli, pGEX-6P-2
Experiment: IP6K1 high-throughput screen of the Sigma LOPAC (ADP-Glo Max, single point);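 further: final compound concentration 10µM in 5% DMSO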
Type: biochemical

[1] = LOPAC single-point screen, ADP-Glo Max luminescence raw signal per well
[2] = LOPAC single-point screen, Z-score relative to plate average and StDev
[3] = LOPAC single-point screen, ADP-Glo Max raw signal per well
[4] = LOPAC single-point screen, Z-score against plate average and StDev
[5] = LOPAC single-point screen, Z-score from raw signal with plate average and StDev
[6] = Sigma LOPAC single-point screen, ADP-Glo Max raw signal per well
[7] = Sigma LOPAC single-point screen, Z-score from plate average and StDev
[8] = LOPAC single-point screen, Z-score from plate average and StDev

T1 sequence (Q92551 whole entry): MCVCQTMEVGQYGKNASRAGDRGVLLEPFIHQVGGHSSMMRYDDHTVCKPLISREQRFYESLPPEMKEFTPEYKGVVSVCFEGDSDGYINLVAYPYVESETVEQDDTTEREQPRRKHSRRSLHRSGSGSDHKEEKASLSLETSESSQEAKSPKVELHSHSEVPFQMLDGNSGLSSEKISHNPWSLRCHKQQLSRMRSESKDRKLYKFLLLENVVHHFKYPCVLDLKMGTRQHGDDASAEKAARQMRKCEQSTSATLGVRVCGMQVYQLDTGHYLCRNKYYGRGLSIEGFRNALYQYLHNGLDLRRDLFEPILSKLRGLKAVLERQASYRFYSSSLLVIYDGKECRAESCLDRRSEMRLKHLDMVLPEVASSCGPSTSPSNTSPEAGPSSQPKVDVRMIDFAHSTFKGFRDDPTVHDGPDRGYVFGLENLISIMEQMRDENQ

Nc1ccc(CCNc2ncnc3c2ncn3[C@@H]2O[C@H](CO)[C@@H](O)[C@H]2O)cc1 [N6-2-(4-Aminophenyl)ethyladenosine]
Raw Signal [1]: 51199
Z-score [2]: -1.183

CN1C2CCC1CC(OC(=O)c1c[nH]c3ccccc13)C2.Cl (stereo not shown)
Raw Signal [3]: 56078
Z-score [4]: 0.01053

(+)-Catechin Hydrate
Raw Signal [3]: 56524
Z-score [5]: -0.2447

N[C@@H]1CONC1=O (racemic) [DL-Cycloserine]
Raw Signal [3]: 55454
Z-score [5]: -0.4331

FC(F)(F)c1ccccc1-n1ccnc1 [1-[2-(Trifluoromethyl)phenyl]imidazole]
Raw Signal [6]: 60208
Z-score [7]: 0.8129

CCCCNc1ccc(C(=O)OCCN(C)C)cc1 [Tetracaine hydrochloride]
Raw Signal [3]: 56522
Z-score [4]: 0.09679

C#CCN(C)[C@H](C)Cc1ccccc1.Cl [R-(-)-Deprenyl hydrochloride]
Raw Signal [3]: 53619
Z-score [5]: -0.1301

CCn1ccnc1CC1COc2ccccc2O1 (stereo not shown) [Imiloxan hydrochloride]
Raw Signal [3]: 52626
Z-score [5]: -0.297

O=c1cc(O)cc(/C=C/c2ccc(O)c(O)c2)o1 [Hispidin]
Raw Signal [1]: 48484
Z-score [2]: -1.357

N#C/C(=C\c1ccc(O)c(O)c1)C(=O)c1ccc(O)c(O)c1 [Tyrphostin AG 538]
Raw Signal [1]: 38614
Z-score [2]: -3.382

O=C(c1ccc(F)cc1)C1CCN(CCn2c(=O)[nH]c3ccccc3c2=O)CC1 [Ketanserin tartrate]
Raw Signal [6]: 61310
Z-score [7]: 1.027

C[N+](C)(C)CCOP(=O)([O-])OP(=O)([O-])OC[C@H]1O[C@@H](n2ccc(N)nc2=O)[C@H](O)[C@@H]1O.[Na+] [Citicoline sodium]
Raw Signal [6]: 63989
Z-score [7]: 1.07

CC(=O)NCCc1ccc(O)c(O)c1.O [N-Acetyldopamine monohydrate]
Raw Signal [6]: 60782
Z-score [7]: 0.5053

Cc1ccc(O)c(N=Nc2ccccc2)n1 [SIB 1757]
Raw Signal [1]: 46352
Z-score [2]: -1.879

Cc1ccccc1N1CCN(S(=O)(=O)CC23CCC(CC2NC(=O)C(N)CCS(C)(=O)=O)C3(C)C)CC1 [L-368,899]
Raw Signal [1]: 50329
Z-score [2]: -0.6829

OC(CCN1CCCCC1)(c1ccccc1)C1CCCCC1 (stereo not shown) [Trihexyphenidyl hydrochloride]
Raw Signal [6]: 57771
Z-score [7]: 0.3394

CC(=O)OC(C)C[N+](C)(C)C.[Cl-] (stereo not drawn) [Acetyl-beta-methylcholine chloride]
Raw Signal [1]: 54689
Z-score [2]: -0.5679

NC[C@@H]1O[C@H](O[C@H]2[C@@H](O)[C@H](O[C@@H]3[C@@H](O)[C@H](N)C[C@H](N)[C@H]3O[C@H]3O[C@H](CO)[C@@H](O)[C@H](O)[C@H]3N)O[C@@H]2CO)[C@H](N)[C@@H](O)[C@@H]1O [Paromomycin sulfate]
Raw Signal [3]: 55765
Z-score [4]: -0.05028

NC(=O)N1c2ccccc2C=Cc2ccccc21 [Carbamazepine]
Raw Signal [6]: 60604
Z-score [7]: 0.4739

Br.COc1ccc(-c2ccc(=N)n(CCCC(=O)O)n2)cc1 [SR-95531]
Raw Signal: 59972
Z-score: 0.7671

CCCn1c(=O)[nH]c(=O)c2nc[nH]c21 [3-n-Propylxanthine]
Raw Signal [6]: 57454
Z-score [7]: 0.5142

CC(Cc1ccc(O)c(O)c1)C(C)Cc1ccc(O)c(O)c1 (stereo not shown)
Raw Signal [3]: 56278
Z-score [4]: 0.3166

Br.CCCN1CCc2cc(O)cc3c2[C@H]1Cc1ccc(O)c(O)c1-3
Raw Signal [1]: 52120
Z-score [2]: -0.6188

CC(N)C(=O)OC(C)(C)Cc1ccc(Cl)cc1 (stereo not shown) [Alaproclate hydrochloride]
Raw Signal [1]: 54794
Z-score [2]: -0.5494

CN1[C@@H]2CC[C@H]1C[C@@H](OC(=O)[C@H](CO)c1ccccc1)C2 [L-Hyoscyamine]
Raw Signal [1]: 63094
Z-score [8]: 1.61

S=C=Nc1ccc2oc(C3=NCCN3)cc2c1 [BU99006]
Raw Signal [3]: 56328
Z-score [4]: 0.2358

CNC[C@H](O)c1cccc(O)c1 [Phenylephrine hydrochloride]
Raw Signal [3]: 56055
Z-score [4]: 0.2792

CC(=O)c1ccc(S(=O)(=O)NC(=O)NC2CCCCC2)cc1 [Acetohexamide]
Raw Signal [6]: 64165
Z-score [7]: 1.101

CCNC(=O)N1CCN(CCCC(c2ccc(F)cc2)c2ccc(F)cc2)CC1 [Amperozide hydrochloride]
Raw Signal [1]: 52806
Z-score [2]: -0.8995

N[C@]1(C(=O)O)CC[C@H](C(=O)O)C1 (racemic) [trans-(±)-ACPD]
Raw Signal [3]: 56973
Z-score [5]: -0.1656

C[N+](C)(C)CC#CCN1CCCC1=O [Oxotremorine methiodide]
Raw Signal [1]: 63016
Z-score [8]: 1.4488

CCCn1c(=O)c2[nH]c(C3CCCC3)nc2n(CCC)c1=O [8-Cyclopentyl-1,3-dipropylxanthine]
Raw Signal [3]: 55782
Z-score [4]: 0.1249

CC[C@@H]1C(=O)OC[C@@H]1Cc1cncn1C [Pilocarpine nitrate]
Raw Signal [6]: 59730
Z-score [7]: 0.8967

C1CNCCN1.COc1cc(C(O)CO)ccc1O.COc1cc(C(O)CO)ccc1O (stereo not shown) [MHPG piperazine]
Raw Signal [6]: 58694
Z-score [7]: 0.7163

CC(C)CC(NC(=O)C1OC1C(=O)O)C(=O)NCCCCNC(=N)N (stereo not shown) [E-64]
Raw Signal [6]: 60196
Z-score [7]: 1.021

NC/C=C\C(=O)O [cis-4-Aminocrotonic acid]
Raw Signal [1]: 52551
Z-score [2]: -0.6747

CN(C)[C@@H]1C(O)=C(C(N)=O)C(=O)[C@@]2(O)C(O)=C3C(=O)c4c(O)ccc(Cl)c4[C@@H](O)[C@H]3C[C@@H]12 [Demeclocycline hydrochloride]
Raw Signal [1]: 42734
Z-score [2]: -2.525

Br.NCc1cc(O)no1 [Muscimol hydrobromide]
Raw Signal [3]: 54732
Z-score [4]: -0.08835

Oc1cc2c(cc1O)[C@H]1c3ccccc3CN[C@@H]1CC2 (racemic) [Dihydrexidine hydrochloride]
Raw Signal [3]: 53851
Z-score [5]: -0.2673

CN(C)CCOC(C)(c1ccccc1)c1ccccn1 (stereo not shown) [Doxylamine succinate]
Raw Signal [1]: 49925
Z-score [2]: -1.065

CC(=O)NCCc1c[nH]c2ccc(O)cc12 [N-Acetyl-5-hydroxytryptamine]
Raw Signal [1]: 55051
Z-score [2]: -0.5041

C[C@]12CC[C@@H]3c4ccc(O)cc4CC[C@H]3[C@@H]1CCC2=O [Estrone]
Raw Signal [3]: 53604
Z-score [5]: -0.3174

NC(Cc1cccc(-c2ccccc2CP(=O)(O)O)c1)C(=O)O (stereo not shown)
Raw Signal [3]: 56365
Z-score [4]: 0.06629

MDL 26,630 trihydrochloride
Raw Signal [3]: 53612
Z-score [5]: -0.1313

CC1CNCCN1S(=O)(=O)c1cccc2cnccc12.Cl.Cl (stereo not shown)
Raw Signal [3]: 52932
Z-score [5]: -0.2456

CCCCCCCCCCCCCCCCCCOCC(COP(=O)([O-])OCC[N+](C)(C)C)OC (stereo not shown) [ET-18-OCH3]
Raw Signal [1]: 51314
Z-score [2]: -0.7825

Cc1nc(N=Nc2ccc(S(=O)(=O)O)cc2S(=O)(=O)O)c(COP(=O)(O)O)c(C=O)c1O [PPADS]
Raw Signal [3]: 55598
Z-score [4]: -0.08273

C[C@]12CCC(=O)C=C1CC[C@@H]1[C@@H]2[C@@H](O)C[C@@]2(C)[C@H]1CC[C@]2(O)C(=O)COC(=O)CCC(=O)[O-].[Na+] [Hydrocortisone 21-hemisuccinate sodium]
Raw Signal [6]: 57689
Z-score [7]: 0.5122

CC(=O)NNC(=O)N1Cc2ccccc2Oc2ccc(Cl)cc21 [SC 19220]
Raw Signal [6]: 57783
Z-score [7]: 0.3418

Cc1scc2c1N(C(=O)CN1CCN(C)CC1)c1ccccc1NC2=O [Telenzepine dihydrochloride]
Raw Signal [6]: 58050
Z-score [7]: 0.3937

COc1ccc2c(c1O)-c1cccc3c1[C@@H](C2)N(C)CC3.Cl [R(-)-Apocodeine hydrochloride]
Raw Signal [1]: 50869
Z-score [2]: -0.8729

CCOC(=O)[N-]c1cn(N2CCOCC2)n[o+]1 [Molsidomine]
Raw Signal [6]: 60839
Z-score [7]: 1.083

O=C(O)CCCCCCC1C(=O)NC(=O)N1CCC(O)C1CCCCC1 (stereo not shown) [BW 245C]
Raw Signal [1]: 64569
Z-score [8]: 1.71

CC(C)[C@H](NC(=O)OCc1ccccc1)C(=O)N[C@H](C=O)Cc1ccccc1 [MDL 28170] (Cbz-Val-Phe-aldehyde)
Raw Signal [1]: 65838
Z-score [8]: 1.923

OC[C@H]1NC[C@@H](O)[C@@H]1O [1,4-Dideoxy-1,4-imino-D-arabinitol]
Raw Signal [3]: 54688
Z-score [5]: -0.09729

O=c1[nH]c(=O)n([C@H]2C[C@H](O)[C@@H](CO)O2)cc1/C=C/Br [(E)-5-(2-Bromovinyl)-2-deoxyuridine]
Raw Signal [3]: 57888
Z-score [4]: -0.004421

C[C@](N)(Cc1ccc(O)cc1)C(=O)O [L-alpha-Methyl-p-tyrosine]
Raw Signal [3]: 53929
Z-score [4]: -0.07805

CN(Cc1cnc2nc(N)nc(N)c2n1)c1ccc(C(=O)N[C@@H](CCC(=O)O)C(=O)O)cc1 [Methotrexate]
Raw Signal [6]: 60039
Z-score [7]: 0.3744

COC(=O)C1=C(C)NC(C)=C(C(=O)OC)C1c1ccccc1[N+](=O)[O-] [Nifedipine]
Raw Signal [6]: 59653
Z-score [7]: 0.8837

CC(C)NCC(O)COc1cccc2[nH]ccc12 (stereo not shown) [Pindolol]
Raw Signal [1]: 62809
Z-score [8]: 1.414

CNCCC(Oc1ccc(C(F)(F)F)cc1)c1ccccc1 (stereo not shown) [Fluoxetine hydrochloride]
Raw Signal [6]: 60043
Z-score [7]: 0.9903

CC(C(O)c1ccc(O)cc1)N1CCC(Cc2ccccc2)CC1.CC(C(O)c1ccc(O)cc1)N1CCC(Cc2ccccc2)CC1.O=C(O)C(O)C(O)C(=O)O (stereo not shown) [Ifenprodil tartrate]
Raw Signal [3]: 56294
Z-score [4]: 0.3193
